In patent US20230339978A1, “COMPOUNDS FOR PREVENTION OR TREATMENT OF NEURODEGENERATIVE DISORDERS” (1ST Biotherapeutics, Inc., priority 2020, published 2023):

Key:
[1] = test system: IL-6 secretion in BV-2 cell; assay: IL-6 Secretion in BV-2 Cell (L18-MDP stimulated, ELISA); format: cell-based; conditions: BV-2 mouse microglia cells, 10 µg/ml L18-MDP, 24 hr
Method: IL-6 Secretion in BV-2 Cell
BV-2 mouse microglia cells were kindly provided from Dr. Bae in Korea Institute of Science and Technology (KIST). BV-2 cells were thawed and suspended in Dulbecco’s modified eagle medium (DMEM) supplemented with 10% fetal bovine serum (FBS) and 1% Penicillin/Streptomycin. Cells were seeded into 96 well plates at 2X10^4 cells/well and allowed to attach for 24 hr. On the day of the experiment, various concentration of compounds were treated, and cells were stimulated with 10 µg/ml L18-MDP. After 24 hr incubation, supernatant was collected for cytokine assay.
Absorbance at 450 nm was measured using SpectraMax I3X microplate reader (Molecular Device). Values of media-only wells were subtracted and % inhibition for each compound concentration relative to the DMSO/L18-MDP-treated controls (100%) was calculated.

[2] = molecular target: GST-tagged recombinant human RIPK2 (Homo sapiens (Human), UniProt O43353); assay: RIP2 Kinase Assay (ADP-Glo); format: biochemical; conditions: 25 µM ATP, MBP substrate, 30° C. 60 minutes
Method: GST-tagged recombinant human RIPK2(25 ng) is incubated with 5 µL of compounds (0.5% DMSO), 5 µL of MBP (0.5 µg/µl) and 5 µL of ATP (25 µM) in buffer (40 mM Tris, 7.5; 20 mM MgCl2; 0.1 mg/ml BSA; 50 µM DTT). The assay was started by incubating the reaction mixture in a 96-well plate at 30° C. for 60 minutes. After the incubation, 25 µL ADP-Glo reagent was added, and the reaction was incubated at 30° C. for 40 minutes to stop the reaction and degrade residual ATP. The ADP product was then converted to ATP by adding 50 µL per well of detection reagent. Luminescence was detected after 30 minutes room temperature incubation with the Molecular device I3X plate reader. The IC50 values were calculated from a series of percent inhibition values determined at a range of inhibitor concentration using software routines as implemented in the GraphPad Prism 7 software or SigmaPlot 13.0.

[3] = molecular target: His-tagged recombinant human ABL1 (Homo sapiens (Human), UniProt P00519); conditions: read-out: c-Abl IC50; 25 µM ATP, Abltide substrate, 30° C. 30-min
Chain of His-tagged recombinant human ABL1 (P00519 whole entry): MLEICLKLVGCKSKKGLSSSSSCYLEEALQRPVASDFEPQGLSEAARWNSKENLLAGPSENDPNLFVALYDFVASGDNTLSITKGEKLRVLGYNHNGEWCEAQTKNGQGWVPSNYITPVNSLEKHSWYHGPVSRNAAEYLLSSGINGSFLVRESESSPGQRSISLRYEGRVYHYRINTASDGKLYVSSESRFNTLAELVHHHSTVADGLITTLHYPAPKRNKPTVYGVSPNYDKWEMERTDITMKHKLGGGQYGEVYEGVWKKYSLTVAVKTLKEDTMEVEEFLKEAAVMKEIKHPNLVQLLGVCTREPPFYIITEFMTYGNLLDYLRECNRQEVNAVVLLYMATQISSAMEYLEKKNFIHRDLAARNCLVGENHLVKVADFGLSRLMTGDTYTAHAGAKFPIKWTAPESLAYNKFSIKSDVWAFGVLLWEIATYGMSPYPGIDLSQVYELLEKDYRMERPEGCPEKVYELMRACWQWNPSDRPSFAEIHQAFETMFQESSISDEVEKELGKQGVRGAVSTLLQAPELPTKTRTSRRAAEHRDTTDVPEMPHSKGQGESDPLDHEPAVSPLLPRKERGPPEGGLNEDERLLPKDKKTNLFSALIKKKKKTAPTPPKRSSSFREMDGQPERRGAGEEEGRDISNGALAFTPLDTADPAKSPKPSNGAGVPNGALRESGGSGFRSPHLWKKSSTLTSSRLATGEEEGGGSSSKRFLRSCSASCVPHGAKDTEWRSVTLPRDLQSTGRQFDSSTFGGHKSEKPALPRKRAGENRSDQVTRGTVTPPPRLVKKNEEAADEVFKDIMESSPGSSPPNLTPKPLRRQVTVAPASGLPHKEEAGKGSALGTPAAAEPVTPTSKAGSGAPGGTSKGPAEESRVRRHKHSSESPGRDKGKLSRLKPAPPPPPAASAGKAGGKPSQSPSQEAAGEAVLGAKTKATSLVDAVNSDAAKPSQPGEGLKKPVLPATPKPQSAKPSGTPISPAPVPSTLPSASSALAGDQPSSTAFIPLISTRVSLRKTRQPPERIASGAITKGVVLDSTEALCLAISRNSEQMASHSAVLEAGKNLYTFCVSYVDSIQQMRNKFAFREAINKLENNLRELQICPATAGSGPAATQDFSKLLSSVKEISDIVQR
Method: ADP-Glo assay kit was purchased from Promega. Magnesium chloride (MgCl2), bovine serum albumin (BSA), ethylene glycol-bis(β-aminoethyl ether)-N,N,N′,N′-tetraacetic acid (EGTA), tween-20, 1,4-dithiothreitol (DTT) and dimethyl sulfoxide (DMSO) were purchased from Sigma-Aldrich. HEPES buffer was purchased from Gibco. ABL1 kinase and Abltide were purchased from Signalchem.
c-Abl kinase activity was measured by Promega’s ADP-Glo ® Assay. In this assay, His-tagged recombinant human ABL1 (0.25 ng/µl) is incubated with 5 µL of compounds (0.5% DMSO), 5 µL of Abltide (0.01 µg/µl) and 5 µL of ATP (25 µM) in buffer (50 mM HEPES,7.5; 10 mM MgCl2; 1 mM EGTA; 0.05% BSA; 0.01% Tween-20; 2 mM DTT.). The assay was started by incubating the reaction mixture in a 96-well plate at 30° C. for 30-min. After the incubation, 25 µL ADP-Glo reagent was added and the reaction was incubated at room temperature for 40-min to stop the reaction and degrade residual ATP. The ADP product was then converted to ATP by adding 50 µL per well of detection reagent. Luminescence was detected after 30-min room temperature incubation with the Molecular device I3X plate reader. The IC50 values were calculated from a series of percent inhibition values determined at a range of inhibitor concentration using software routines as implemented in the GraphPad Prism 7 software and Sigma Plot 13.0.

Chain of GST-tagged recombinant human RIPK2 (O43353 whole entry): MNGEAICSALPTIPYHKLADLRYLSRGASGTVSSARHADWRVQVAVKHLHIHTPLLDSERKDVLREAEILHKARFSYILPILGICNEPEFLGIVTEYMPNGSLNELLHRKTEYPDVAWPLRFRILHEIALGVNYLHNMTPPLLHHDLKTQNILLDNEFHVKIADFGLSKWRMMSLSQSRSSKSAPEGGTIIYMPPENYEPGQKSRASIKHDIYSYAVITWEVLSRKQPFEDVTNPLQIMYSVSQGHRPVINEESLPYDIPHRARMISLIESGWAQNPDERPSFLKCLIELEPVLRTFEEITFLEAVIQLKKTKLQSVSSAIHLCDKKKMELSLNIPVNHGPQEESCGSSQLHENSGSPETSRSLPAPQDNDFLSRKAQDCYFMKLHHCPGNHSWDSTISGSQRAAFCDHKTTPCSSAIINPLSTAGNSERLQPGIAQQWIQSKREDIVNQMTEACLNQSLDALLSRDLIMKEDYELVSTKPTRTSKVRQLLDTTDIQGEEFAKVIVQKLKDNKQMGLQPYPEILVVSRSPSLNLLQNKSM

IC50 [1]	IC50 [2]	IC50 [3]	SMILES
0.6 µM	0.0484 µM	0.0112 µM	O=C(Nc1cc2cc(-c3cnc4[nH]ccc4c3F)ccn2n1)[C@@H]1C[C@@H]1F [Example 5, (1 S,2S)-2-fluoro-N-(5-(4-fluoro-1 H-pyrrolo[2,3-b]pyridin-5-yl)pyrazolo[1,5-a]pyridin-2-yl)cyclopropane-1-carboxamide]
0.806 µM	0.168 µM	0.009 µM	COc1c(-c2ccn3nc(NC(=O)[C@@H]4C[C@@H]4F)cc3c2)cnc2[nH]ccc12 [Example 6, (1S,2S)-2-fluoro-N-(5-(4-methoxy-1H-pyrrolo[2,3-b]pyridin-5-yl)pyrazolo[1,5-a]pyridin-2-yl)cyclopropane-1-carboxamide]
0.101 µM	0.00877 µM	0.0031 µM	Cc1c(-c2ccn3nc(NC(=O)[C@@H]4C[C@@H]4F)cc3c2)cnc2[nH]ccc12 [Example 9, (1S,2S)-2-fluoro-N-(5-(4-methyl-1H-pyrrolo[2,3-b]pyridin-5-yl)pyrazolo[1,5-a]pyridin-2-yl)cyclopropane-1-carboxamide]
3.94 µM	0.0915 µM	0.0542 µM	Nc1c(-c2ccn3nc(NC(=O)[C@@H]4C[C@@H]4F)cc3c2)cnc2[nH]ccc12 [Example 10, (1S,2S)-N-(5-(4-amino-1H-pyrrolo[2,3-b]pyridin-5-yl)pyrazolo[1,5-a]pyridin-2-yl)-2-fluorocyclopropane-1-carboxamide]
–	0.129 µM	0.0123 µM	CCc1c(-c2ccn3nc(NC(=O)[C@@H]4C[C@@H]4F)cc3c2)cnc2[nH]ccc12 [Example 13, (1S,2S)-N-(5-(4-ethyl-1H-pyrrolo[2,3-b]pyridin-5-yl)pyrazolo[1,5-a]pyridin-2-yl)-2-fluorocyclopropane-1-carboxamide]
–	0.195 µM	0.0122 µM	CSc1c(-c2ccn3nc(NC(=O)[C@@H]4C[C@@H]4F)cc3c2)cnc2[nH]ccc12 [Example 14, (1S,2S)-2-fluoro-N-(5-(4-(methylthio)-1H-pyrrolo[2,3-b]pyridin-5-yl)pyrazolo[1,5-a]pyridin-2-yl)cyclopropane-1-carboxamide]
–	0.828 µM	0.159 µM	CC(C)c1c(-c2ccn3nc(NC(=O)[C@@H]4C[C@@H]4F)cc3c2)cnc2[nH]ccc12 [Example 15, (1S,2S)-2-fluoro-N-(5-(4-isopropyl-1H-pyrrolo[2,3-b]pyridin-5-yl)pyrazolo[1,5-a]pyridin-2-yl)cyclopropane-1-carboxamide]
0.0655 µM	0.00837 µM	0.0031 µM	Cc1c(-c2ccn3nc(NC(=O)[C@H]4C[C@H]4F)cc3c2)cnc2[nH]ccc12 [Example 20, (1R,2R)-2-fluoro-N-(5-(4-methyl-1H-pyrrolo[2,3-b]pyridin-5-yl)pyrazolo[1,5-a]pyridin-2-yl)cyclopropane-1-carboxamide]
0.0614 µM	0.00825 µM	0.0033 µM	Cc1c(-c2ccn3nc(NC(=O)[C@H]4C[C@@H]4F)cc3c2)cnc2[nH]ccc12 [Example 21, (1R,2S)-2-fluoro-N-(5-(4-methyl-1H-pyrrolo[2,3-b]pyridin-5-yl)pyrazolo[1,5-a]pyridin-2-yl)cyclopropane-1-carboxamide]
0.0571 µM	0.0159 µM	0.0042 µM	Cc1c(-c2ccn3nc(NC(=O)[C@@H]4C[C@H]4F)cc3c2)cnc2[nH]ccc12 [Example 22, (1S,2R)-2-fluoro-N-(5-(4-methyl-1H-pyrrolo[2,3-b]pyridin-5-yl)pyrazolo[1,5-a]pyridin-2-yl)cyclopropane-1-carboxamide]
–	0.0161 µM	0.0194 µM	O=C(Nc1cc2cc(-c3cnc4[nH]ccc4c3Cl)ccn2n1)[C@@H]1C[C@H]1F [Example 26, (1S,2R)-N-(5-(4-chloro-1H-pyrrolo[2,3-b]pyridin-5-yl)pyrazolo[1,5-a]pyridin-2-yl)-2-fluorocyclopropane-1-carboxamide]
0.162 µM	0.0151 µM	0.0124 µM	O=C(Nc1cc2cc(-c3cnc4[nH]ccc4c3Cl)ccn2n1)[C@H]1C[C@@H]1F [Example 27, (1R,2S)-N-(5-(4-chloro-1H-pyrrolo[2,3-b]pyridin-5-yl)pyrazolo[1,5-a]pyridin-2-yl)-2-fluorocyclopropane-1-carboxamide]
–	0.0215 µM	0.0139 µM	O=C(Nc1cc2cc(-c3cnc4[nH]ccc4c3Cl)ccn2n1)[C@H]1C[C@H]1F [Example 28, (1R,2R)-N-(5-(4-chloro-1H-pyrrolo[2,3-b]pyridin-5-yl)pyrazolo[1,5-a]pyridin-2-yl)-2-fluorocyclopropane-1-carboxamide]

The remaining lines, values behind:

SMILES	IC50 [1]	IC50 [2]	IC50 [3]
Cc1nc2[nH]ccc2cc1-c1ccn2nc(NC(=O)[C@@H]3C[C@@H]3F)cc2c1 [Example 3, (1S,2S)-2-fluoro-N-(5-(6-methyl-1 H-pyrrolo[2,3-b]pyridin-5-yl)pyrazolo[1,5-a]pyridin-2-yl)cyclopropane-1-carboxamide]	0.332 µM	0.025 µM	0.0007 µM
O=C(Nc1cc2cc(-c3cc4cc[nH]c4nc3Cl)ccn2n1)[C@@H]1C[C@@H]1F [Example 4, (1S,2S)-N-(5-(6-chloro-1H-pyrrolo[2,3-b]pyridin-5-yl)pyrazolo[1,5-a]pyridin-2-yl)-2-fluorocyclopropane-1-carboxamide]	0.351 µM	0.0139 µM	0.0012 µM
O=C(Nc1cc2cc(-c3cnc4[nH]cc(F)c4c3)ccn2n1)[C@@H]1C[C@@H]1F [Example 7, (1S,2S)-2-fluoro-N-(5-(3-fluoro-1 H-pyrrolo[2,3-b]pyridin-5-yl)pyrazolo[1,5-a]pyridin-2-yl)cyclopropane-1-carboxamide]	0.732 µM	0.0243 µM	0.0036 µM
Cc1cc2cc(-c3ccn4nc(NC(=O)[C@@H]5C[C@@H]5F)cc4c3)cnc2[nH]1 [Example 8, (1S,2S)-2-fluoro-N-(5-(2-methyl-1H-pyrrolo[2,3-b]pyridin-5-yl)pyrazolo[1,5-a]pyridin-2-yl)cyclopropane-1-carboxamide]	0.625 µM	0.0843 µM	0.004 µM
O=C(Nc1cc2cc(-c3cnc4[nH]cc(Cl)c4c3)ccn2n1)[C@@H]1C[C@@H]1F [Example 11, (1S,2S)-N-(5-(3-chloro-1H-pyrrolo[2,3-b]pyridin-5-yl)pyrazolo[1,5-a]pyridin-2-yl)-2-fluorocyclopropane-1-carboxamide]	0.654 µM	0.0334 µM	0.0032 µM
Cc1c[nH]c2ncc(-c3ccn4nc(NC(=O)[C@@H]5C[C@@H]5F)cc4c3)cc12 [Example 12, (1S,2S)-2-fluoro-N-(5-(3-methyl-1H-pyrrolo[2,3-b]pyridin-5-yl)pyrazolo[1,5-a]pyridin-2-yl)cyclopropane-1-carboxamide]	0.687 µM	0.0886 µM	0.0025 µM
O=C(Nc1cc2cc(-c3cnc4[nH]ccc4c3C3CC3)ccn2n1)[C@@H]1C[C@@H]1F [Example 16, (1S,2S)-N-(5-(4-cyclopropyl-1 H-pyrrolo[2,3-b]pyridin-5-yl)pyrazolo[1,5-a]pyridin-2-yl)-2-fluorocyclopropane-1-carboxamide]	–	0.204 µM	0.013 µM
N#Cc1c(-c2ccn3nc(NC(=O)[C@@H]4C[C@@H]4F)cc3c2)cnc2[nH]ccc12 [Example 17, (1S,2S)-N-(5-(4-cyano-1H-pyrrolo[2,3-b]pyridin-5-yl)pyrazolo[1,5-a]pyridin-2-yl)-2-fluorocyclopropane-1-carboxamide]	–	0.0702 µM	0.0202 µM
O=C(Nc1cc2cc(-c3cnc4[nH]c(Cl)cc4c3)ccn2n1)[C@@H]1C[C@@H]1F [Example 18, (1S,2S)-N-(5-(2-chloro-1H-pyrrolo[2,3-b]pyridin-5-yl)pyrazolo[1,5-a]pyridin-2-yl)-2-fluorocyclopropane-1-carboxamide]	–	0.0305 µM	0.0036 µM
O=C(Nc1cc2cc(-c3cnc4[nH]ccc4c3Cl)ccn2n1)C1CC1 [Example 23, N-(5-(4-chloro-1H-pyrrolo[2,3-b]pyridin-5-yl)pyrazolo[1,5-a]pyridin-2-yl)cyclopropanecarboxamide]	–	0.0199 µM	0.0092 µM
Cc1c(-c2ccn3nc(NC(=O)[C@@H]4C[C@@H]4F)cc3c2)cnc2[nH]cc(F)c12 [Example 24, (1S,2S)-2-fluoro-N-(5-(3-fluoro-4-methyl-1H-pyrrolo[2,3-b]pyridin-5-yl)pyrazolo[1,5-a]pyridin-2-yl)cyclopropane-1-carboxamide]	0.0757 µM	0.0149 µM	0.0029 µM
Cc1c(-c2ccn3nc(NC(=O)[C@@H]4C[C@@H]4F)cc3c2)cnc2[nH]cc(Cl)c12 [Example 25, (1S,2S)-N-(5-(3-chloro-4-methyl-1H-pyrrolo[2,3-b]pyridin-5-yl)pyrazolo[1,5-a]pyridin-2-yl)-2-fluorocyclopropane-1-carboxamide]	–	0.0322 µM	0.0017 µM
O=C(Nc1cc2cc(-c3cnc4[nH]cc(Cl)c4c3Cl)ccn2n1)[C@@H]1C[C@@H]1F [Example 29, (1S,2S)-N-(5-(3,4-dichloro-1H-pyrrolo[2,3-b]pyridin-5-yl)pyrazolo[1,5-a]pyridin-2-yl)-2-fluorocyclopropane-1-carboxamide]	0.177 µM	0.0154 µM	0.0043 µM
